From US11655239B2 (SHANGHAI INSTITUTE OF MATERIAL MEDICA, CHINESE ACADEMY OF …, priority 2019, dated 2023)

Assays:
primary lung fibroblasts = experiment: Activation of myofibroblasts in primary lung fibroblasts isolated from mice; assay type: cell-based, mouse; conditions: primary lung fibroblasts isolated from mice of the experimental groups
EPH-A2 = EPH-A2 (Homo sapiens (Human), UniProt P29317); experiment: Enzyme selectivity test (ELISA), EPH-A2; assay type: biochemical
Experimental: 1) Enzyme reaction substrate Poly(Glu, Tyr) 4:1 was diluted to 20 μg/mL with potassium-free PBS (10 mM sodium phosphate buffer, 150 mM NaCl, pH 7.2-7.4), and the microtiter plate was coated with 125 μL/well and placed at 37° C. for 12-16 hours of reaction. The liquid in the well was discard. The plate was washed three times with T-PBS (potassium-free PBS containing 0.1% Tween-20, 200 μL/well), 5 minutes each time. The ELISA plate was dried in an oven at 37° C. for 1 to 2 hours.
2) Reaction buffer (50 mM HEPES pH 7.4, 50 mM MgCl2, 0.5 mM MnCl2, 0.2 mM Na3VO4, 1 mM DTT) diluted ATP solution (49 μL) was added to each well, 1 μL of the compound to be tested was added to each well, and then 50 μL of DDR2 kinase domain recombinant protein diluted in the reaction buffer was added to start the reaction. Two control wells without ATP were set in each experiment. The plate placed on a shaker (100 rpm) at 37° C. for 1 hour of reaction. The liquid in the well was discarded and the plate was washed three times with T-PBS.
3) Antibody PY99 dilution solution (the antibody was diluted 1:500 with T-PBS containing BSA 5 mg/mL) was added at 100 μL/well, and shaken on a shaker at 37° C. for 0.5 hour of reaction. The liquid in the well was discarded and the plate was washed three times with T-PBS.
4) Horseradish peroxidase labeled goat anti-murine secondary antibody dilution solution (the antibody is diluted 1:2000 with T-PBS containing BSA 5 mg/ml) was added at 100 μL/well, and shaken on a shaker at 37° C. for 0.5 hour of reaction. The liquid in the well was discarded and the plate was washed three times with T-PBS.
5) 2 mg/ml of OPD color developing solution [diluted with 0.1 M citric acid-sodium citrate buffer (pH=5.4) containing 0.03% H2O2] was added at 100 μL/well and reacted for 1 to 10 minutes at 25° C. in the dark.
6) 2M H2SO4 was added at 50 μL/well to stop the reaction, and a tunable wavelength microplate reader VERSAmax was used for reading at a wavelength of 490 nm.
The IC50 value was obtained by four-parameter regression using the software that came with the microplate reader. […]

[1] = tested on: pulmonary fibrosis induced by bleomycin in mice; experiment: Active TGF-β1 in BALF (ELISA); assay type: in vivo, mouse; conditions: 90 mg/kg; reduced from 123 pg/ml in BLM group
Experimental: The expression level of active TGF-β1 in BALF was detected by using the TGF-β1 ELISA detection kit (Shanghai Wuhao Bio-Tech Co., Ltd). The steps are as follows:
1) 10 standard wells were set on the enzyme coated plate. After the standard was diluted, the volume in each well was 50 μl, and the concentration was 1800 ng/L, 1200 ng/L, 600 ng/L, 300 ng/L, 150 ng/L, respectively. The concentration was the same every two tubes.
2) Sample addition: a blank well (no sample and enzyme reagent) and a well for the sample to be tested were set, respectively. 40 μl of sample dilution solution was added to the well for the sample to be tested on the enzyme coated plate, and then 10 μl of the sample to be tested was added.
3) Incubation: the sample to be tested was sealed with a sealing film and then incubated at 37° C. for 30 minutes.
4) Solution preparation: the concentrated washing liquid (30 times (20 times of 48T)) was diluted 30 times (20 times of 48T) with distilled water for use.
5) Wash: the liquid was discarded and spun dry. Each well was filled with the washing liquid. After standing for 30 seconds, the washing liquid was discarded. This was repeated 5 times and pat dry. […]
10) Determination: zero setting was performed using a blank well within 15 minutes after the reaction was stopped, and the absorbance (OD value) of each well was measured in sequence at a wavelength of 450 nm.

EPH-A2, sequence (P29317 24-976, species assumed): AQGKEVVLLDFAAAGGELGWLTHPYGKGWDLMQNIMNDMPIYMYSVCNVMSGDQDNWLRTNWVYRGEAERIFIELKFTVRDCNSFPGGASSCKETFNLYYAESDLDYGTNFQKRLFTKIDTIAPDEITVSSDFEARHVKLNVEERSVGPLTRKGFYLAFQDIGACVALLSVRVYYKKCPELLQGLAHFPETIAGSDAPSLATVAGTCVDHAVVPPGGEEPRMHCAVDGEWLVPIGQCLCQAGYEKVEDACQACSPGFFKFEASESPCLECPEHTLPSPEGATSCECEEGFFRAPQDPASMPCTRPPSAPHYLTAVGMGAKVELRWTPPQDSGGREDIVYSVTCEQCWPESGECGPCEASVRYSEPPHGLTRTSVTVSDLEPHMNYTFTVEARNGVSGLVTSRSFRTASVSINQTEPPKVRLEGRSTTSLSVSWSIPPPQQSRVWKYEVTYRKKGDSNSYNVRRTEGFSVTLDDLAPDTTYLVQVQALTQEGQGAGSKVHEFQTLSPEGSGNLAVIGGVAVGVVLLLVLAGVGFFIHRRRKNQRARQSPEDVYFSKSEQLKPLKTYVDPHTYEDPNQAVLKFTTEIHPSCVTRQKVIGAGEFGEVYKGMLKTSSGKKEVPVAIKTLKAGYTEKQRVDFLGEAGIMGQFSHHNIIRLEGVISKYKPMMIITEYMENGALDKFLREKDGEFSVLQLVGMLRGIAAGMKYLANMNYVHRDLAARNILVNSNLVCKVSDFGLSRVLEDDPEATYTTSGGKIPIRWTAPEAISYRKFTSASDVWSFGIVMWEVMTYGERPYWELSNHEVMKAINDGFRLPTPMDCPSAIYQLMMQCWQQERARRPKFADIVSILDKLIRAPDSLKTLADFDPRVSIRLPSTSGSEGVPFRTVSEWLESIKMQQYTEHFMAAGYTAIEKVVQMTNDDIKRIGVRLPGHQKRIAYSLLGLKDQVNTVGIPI

For `O=C(Nc1cccc(C(F)(F)F)c1)c1ccc(C2CC2)c(-c2ccc3nc(Nc4cnn(C5CC5)c4)ncc3c2)c1` [Compound S15, 4-cyclopropyl-3-(2-((1-cyclopropyl-1H-pyrazol-4-yl)amino)quinazolin-6-yl)-N-(3-(trifluoromethyl)phenyl)benzamide], the activation of myofibroblasts (primary lung fibroblasts) was “inhibit the activation of myofibroblasts in a dose-dependent manner”, the IC50 (EPH-A2) was greater than 10 nM and the “active TGF-β1 in BALF” value [1] was 48 pg/mL.
